Experimental data taken from US6916798B2, “Inhibitors of GSK-3 and uses thereof” (Vertex Pharmaceuticals Incorporated, priority 2001, dated 2005).

Tests used:
Format in all cases: biochemical
[1] = biological target: T1, Aurora-2 (Homo sapiens, UniProt O14965); experiment: Ki determination for the inhibition of Aurora-2, standard coupled enzyme assay; conditions: 70 nM Aurora-2, 800 μM peptide LRRASLG, 30° C.
T1 sequence (O14965 1-403): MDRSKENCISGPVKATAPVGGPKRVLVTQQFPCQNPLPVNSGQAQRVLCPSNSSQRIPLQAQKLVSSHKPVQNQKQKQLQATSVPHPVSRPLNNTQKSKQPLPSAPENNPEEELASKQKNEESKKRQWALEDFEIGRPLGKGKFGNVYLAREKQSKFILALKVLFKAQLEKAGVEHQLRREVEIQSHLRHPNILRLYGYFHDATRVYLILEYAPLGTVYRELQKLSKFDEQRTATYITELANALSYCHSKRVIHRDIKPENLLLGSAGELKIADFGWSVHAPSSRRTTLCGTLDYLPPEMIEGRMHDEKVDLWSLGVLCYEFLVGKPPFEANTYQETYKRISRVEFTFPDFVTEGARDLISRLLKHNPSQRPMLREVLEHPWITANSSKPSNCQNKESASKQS
Protocol: Compounds were screened in the following manner for their ability to inhibit Aurora-2 using a standard coupled enzyme assay (Fox et al. (1998) Protein Sci. 7, 2249).
(§1) To an assay stock buffer solution containing 0.1M HEPES 7.5, 10 mM MgCl2, 1 mM DTT, 25 mM NaCl, 2.5 mM phosphoenolpyruvate, […], 30 mg/ml pyruvate kinase, 10 mg/ml lactate dehydrogenase, 40 mM ATP, and 800 μM peptide (LRRASLG, American Peptide, Sunnyvale, Calif.) was added a DMSO solution of a compound of the present invention to a final concentration of 30 μM. The resulting mixture was incubated at 30° C. for 10 min. The reaction was initiated by the addition of 10 μL of Aurora-2 stock solution to give a final concentration of 70 nM in the assay. The rates of reaction were obtained by monitoring absorbance at 340 nm over a 5 minute read time at 30° C. using a BioRad Ultramark plate reader (Hercules, Calif.). The Ki values were determined from the rate data as a function of inhibitor concentration.

[2] = biological target: T2, GSK-3β (AA 1-420) (Homo sapiens, UniProt P49841); experiment: Ki determination for the inhibition of GSK-3, standard coupled enzyme system; conditions: 20 μM ATP, 300 μM peptide, 20 nM GSK-3β, 30° C.; read-out: Ki values for GSK-3
T2 construct: GSK-3β (AA 1-420)
Protocol: Final substrate concentrations in the assay were 20 μM ATP (Sigma Chemicals, St Louis, Mo.) and 300 μM peptide (HSSPHQS(PO3H2)EDEEE, American Peptide, Sunnyvale, Calif.). Reactions were carried out at 30° C. and 20 nM GSK-3β. Final concentrations of the components of the coupled enzyme system were 2.5 mM phosphoenolpyruvate, 300 μM NADH, 30 μg/ml pyruvate kinase and 10 μg/ml lactate dehydrogenase.
An assay stock buffer solution was prepared containing all of the reagents listed above with the exception of ATP and the test compound of interest. The assay stock buffer solution (175 μl) was incubated in a 96 well plate with 5 μl of the test compound of interest at final concentrations spanning 0.002 μM to 30 μM at 30 ° C. for 10 min. […] The reaction was initiated by the addition of 20 μl of ATP (final concentration 20 μM). Rates of reaction were obtained using a Molecular Devices Spectramax plate reader (Sunnyvale, Calif.) over 10 min at 30° C. The Ki values were determined from the rate data as a function of inhibitor concentration.

[3] = biological target: T3, CDK-2/Cyclin A (Homo sapiens, UniProt P24941); experiment: Inhibition of CDK-2, standard coupled enzyme assay; conditions: for inhibition at 2 µM: 2 μM compound; for inhibition at 10 µM: read-out: CDK-2 % inhibition @ 10 μM, 10 μM compound
[4] = biological target: T3, CDK-2/Cyclin A; experiment: Inhibition of CDK-2, standard coupled enzyme assay; conditions: 25 nM CDK-2/Cyclin A, 100 μM peptide, 30° C.
Protocol: Compounds were screened in the following manner for their ability to inhibit CDK-2 using a standard coupled enzyme assay (Fox et al (1998) Protein Sci 7, 2249).
as §1, with “[…], […]” for “dehydrogenase, 40”, “and 100” for “and 800”, “peptide ([…],” for “peptide (LRRASLG,”, “of CDK-2/Cyclin A” for “of Aurora-2”, “of 25” for “of 70”, “a 5-minute” for “a 5 minute”

T2 sequence (P49841 whole entry, the tested form may be a part): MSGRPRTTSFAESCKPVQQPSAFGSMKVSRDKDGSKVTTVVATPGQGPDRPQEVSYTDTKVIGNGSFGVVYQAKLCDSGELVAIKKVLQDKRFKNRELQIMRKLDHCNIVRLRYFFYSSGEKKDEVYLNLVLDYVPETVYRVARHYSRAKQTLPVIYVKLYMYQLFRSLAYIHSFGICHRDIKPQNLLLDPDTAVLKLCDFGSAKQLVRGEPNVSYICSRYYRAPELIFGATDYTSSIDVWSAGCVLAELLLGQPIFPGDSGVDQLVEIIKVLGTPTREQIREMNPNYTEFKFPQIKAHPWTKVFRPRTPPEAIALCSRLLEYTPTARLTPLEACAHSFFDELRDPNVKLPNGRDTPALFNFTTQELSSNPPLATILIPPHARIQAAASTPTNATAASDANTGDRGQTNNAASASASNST

| Ki [1] [nM] | Ki [2] [nM] | inhibition at 2 µM [3] [%] | inhibition at 10 µM [3] [%] | Ki [4] [nM] | Compound |
| --- | --- | --- | --- | --- | --- |
| < 100 | < 100 | – | – | – | COc1ccc(N/N=C2\C(=O)NN=C2c2cc(OC)c(OC)c(OC)c2)cc1 [Compound 22] |
| < 100 | < 100 | – | – | – | COc1cc(C2=NNC(=O)C2=NNc2ccc(Cl)cc2)cc(OC)c1OC [Compound 23] |
| < 100 | < 100 | – | – | – | CCN(CC)c1ccc(N/N=C2\C(=O)NN=C2c2ccc(OC)c(OC)c2)cc1 [Compound 37] |
| 100 to 1000 | < 100 | – | – | – | COc1ccc(C2=NNC(=O)/C2=N\Nc2ccc(Cl)cc2)cc1 [Compound 43] |
| – | < 100 | 87 | 94 | – | COc1ccc(C2=NNC(=O)C2=NNc2ccc(Cl)cc2)cc1OC [Compound 44] |
| 100 to 1000 | < 100 | 82 | 95 | – | COc1ccc(NN=C2C(=O)NN=C2c2ccc(OC)cc2)cc1 [Compound 46] |
| < 100 | < 100 | – | – | – | COc1ccc(N/N=C2\C(=O)NN=C2c2ccc(OC)c(OC)c2)cc1 [Compound 47] |
| < 100 | < 100 | – | – | – | COc1ccc(C2=NNC(=O)/C2=N\Nc2ccc(N(C)C)cc2)cc1OC [Compound 52] |
| 100 to 1000 | < 100 | – | – | – | COc1ccc(C2=NNC(=O)/C2=N\Nc2ccc(C#N)cc2)cc1OC [Compound 58] |
| 100 to 1000 | < 100 | – | – | – | COc1ccc(C2=NNC(=O)/C2=N\Nc2ccc(N3CCOCC3)cc2)cc1 [Compound 60] |
| < 100 | < 100 | – | – | – | COc1ccc(C2=NNC(=O)/C2=N\Nc2ccc(N3CCOCC3)cc2)cc1OC [Compound 61] |
| 100 to 1000 | < 100 | – | – | – | COc1cccc(C2=NNC(=O)/C2=N\Nc2ccc(N3CCOCC3)cc2)c1 [Compound 62] |
| 100 to 1000 | < 100 | – | – | – | COc1ccc(C2=NNC(=O)/C2=N\Nc2cccc(Cl)c2)cc1OC [Compound 70] |
| < 100 | < 100 | – | – | – | COc1cccc(N/N=C2\C(=O)NN=C2c2ccc(OC)c(OC)c2)c1 [Compound 73] |
| < 100 | < 100 | – | – | – | COc1ccc(C2=NNC(=O)C2=NNc2ccc(Oc3ccccc3)cc2)cc1OC [Compound 86] |
| – | 100 to 1000 | – | – | 1000 to 20000 | COc1ccc(C2=NNC(=O)C2=CNc2ccc(Oc3ccccc3)cc2)cc1 [Compound 91] |
| – | 100 to 1000 | – | – | 1000 to 20000 | COc1ccc(C2=NNC(=O)C2=CNc2cccc(OCc3ccccc3)c2)cc1OC [Compound 92, 4-[(3-Benzyloxy-phenylamino)-methylene]-5-(3,4-dimethoxy-phenyl)-2,4-dihydro-pyrazol-3-one] |

| Ki [1] [nM] | Ki [2] [nM] | inhibition at 2 µM [3] [%] | inhibition at 10 µM [3] [%] | Ki [4] [nM] | Compound |
| --- | --- | --- | --- | --- | --- |
| – | 100 to 1000 | – | – | 1000 to 20000 | COc1ccc(C2=NNC(=O)C2=CNc2cccc(C(=O)c3ccccc3)c2)cc1 [Compound 93] |
| – | 100 to 1000 | – | – | 1000 to 20000 | COc1ccc(C2=NNC(=O)C2=CNc2cccc(S(N)(=O)=O)c2)cc1OC [Compound 95, 3-{[3-(3,4-Dimethoxy-phenyl)-5-oxo-1,5-dihydro-pyrazol-4-ylidenemethyl]-amino}-benzenesulfonamide] |
| – | 100 to 1000 | – | – | 1000 to 20000 | COc1ccc(C2=NNC(=O)C2=CNc2ccc3c(c2)NCC3)cc1 [Compound 96] |
| – | < 100 | – | – | 1000 to 20000 | COc1ccc(C2=NNC(=O)C2=CNc2ccc3c(c2)N(C(C)=O)CC3)cc1 [Compound 97] |
| – | < 100 | – | – | 100 to 1000 | COc1ccc(C2=NNC(=O)C2=CNc2ccc(OC)c(O)c2)cc1 [Compound 98] |
| – | < 100 | – | – | 1000 to 20000 | COc1ccc(C2=NNC(=O)C2=NNc2ccc(OC)c(-c3cccnc3)c2)cc1OC [Compound 106, 5-(3,4-Dimethoxy-phenyl)-4-[(4-methoxy-3-pyridin-3-yl-phenyl)-hydrazono]-2,4-dihydro-pyrazol-3-one] |
| < 100 | – | – | – | 1000 to 20000 | CCOc1ccc(C2=NNC(=O)C2=NNc2ccc(N(CC)CC)cc2)cc1OCC [Compound 114, 5-(3,4-Diethoxy-phenyl)-4-[(4-diethylamino-phenyl)-hydrazono]-2,4-dihydro-pyrazol-3-one] |
| < 100 | – | – | – | 1000 to 20000 | CCOc1ccc(C2=NNC(=O)C2=NNc2ccc(N(CC)CCO)cc2)cc1OCC [Compound 115, 5-(3,4-Diethoxy-phenyl)-4-({4-[ethyl-(2-hydroxy-ethyl)-amino]-phenyl}-hydrazono)-2,4-dihydro-pyrazol-3-one] |
| < 100 | – | – | – | 1000 to 20000 | CCOc1ccc(C2=NNC(=O)C2=NNc2ccc(N3CCOCC3)cc2)cc1OCC [Compound 116, 5-(3,4-Diethoxy-phenyl)-4-[(4-morpholin-4-yl-phenyl)-hydrazono]-2,4-dihydro-pyrazol-3-one] |
| 100 to 1000 | – | – | – | 1000 to 20000 | CCN(CC)c1ccc(NN=C2C(=O)NN=C2c2ccc(OCc3ccccc3)c(OC)c2)cc1 [Compound 117, 5-(4-Benzyloxy-3-methoxy-phenyl)-4-[(4-diethylamino-phenyl)-hydrazono]-2,4-dihydro-pyrazol-3-one] |
| < 100 | – | – | – | 1000 to 20000 | CCN(CCO)c1ccc(NN=C2C(=O)NN=C2c2ccc(OCc3ccccc3)c(OC)c2)cc1 [Compound 118, 5-(4-Benzyloxy-3-methoxy-phenyl)-4-({4-[ethyl-(2-hydroxy-ethyl)-amino]-phenyl}-hydrazono)-2,4-dihydro-pyrazol-3-one] |
| < 100 | – | – | – | 1000 to 20000 | COc1cc(C2=NNC(=O)C2=NNc2ccc(N3CCOCC3)cc2)ccc1OCc1ccccc1 [Compound 119, 5-(4-Benzyloxy-3-methoxy-phenyl)-4-[(4-morpholin-4-yl-phenyl)-hydrazono]-2,4-dihydro-pyrazol-3-one] |
| – | < 100 | – | – | 1000 to 20000 | COc1ccc(C2=NNC(=O)C2=NNc2ccc(OCCCN(C)CCO)c(-c3ccccc3)c2)cc1OC [Compound 120, 5-(3,4-dimethoxy-phenyl)-4-[(6-{3-[(2-hydroxy-ethyl)-methyl-amino]-propoxy}-biphenyl-3-yl)-hydrazono]-2,4-dihydro-pyrazol-3-one] |
| – | < 100 | – | – | 1000 to 20000 | COc1ccc(C2=NNC(=O)C2=NNc2ccc(OCCCN(C)C)c(-c3ccccc3)c2)cc1OC [Compound 121, 5-(3,4-Dimethoxy-phenyl)-4-{[6-(3-dimethylamino-propoxy)-biphenyl-3-yl]-hydrazono}-2,4-dihydro-pyrazol-3-one] |
| < 100 | < 100 | – | – | – | CCN(CCO)c1ccc(NN=C2C(=O)NN=C2c2cc(OC)c(OC)c(OC)c2)cc1 [Compound 223] |
| – | < 100 | – | – | – | COc1cc(C2=NNC(=O)C2=NNc2ccc(OC)c(Br)c2)ccc1O [Compound 225] |
| – | 100 to 1000 | – | – | – | COc1cc(C2=NNC(=O)C2=CNc2cc(C)[nH]n2)cc(OC)c1OC [Compound 227] |
